≈ marks a conversion by molar mass, not a printed value. Where “and” joins values, the source holds several entries; their conditions need not be identical. Identical values can stand only once. Like-named read-outs stand apart in the source and are kept apart here.
Tests used:
[1] = water with a pH of 7.8; cited from earlier work
[2] = Apparent lipid-water (n-octanol/water) partition coefficient by HPLC; type: physicochemical; set-up: key: —: Cannot be detected; details: for lgP: 37 °C, HPLC of aqueous phase; for apparent lipid-hydro partition coefficient found: HPLC
Experimental: (§1) Mobile phase: acetonitrile-methanol (1 : 1); flow rate: 1.0 ml min^−1; injection volume: 20 µl; wavelength: 230 nm or 254 nm; column temperature: 25°C.
DD4 (5.1 mg) was dissolved in 50 ml of water-saturated n-octanol solution to prepare a solution with a concentration of 102 mg l^−1. Solution (2 ml) and water-saturated n-octanol solution (2 ml) were added to a plugged 10 ml tube. The prepared sample solution was placed in a shaker and shaken to equilibrium overnight in the dark at constant temperature (37 ± 0.1)°C. The lower aqueous phase was taken and analysed by HPLC after centrifugation at a speed of 3000 r min^−1 for 10 min. The drug concentration in the aqueous phase (ρw) was calculated via the standard curve according to the peak area. DD5 (4.5 mg) was dissolved in 50 ml of water-saturated n-octanol solution to prepare a solution with a concentration of 90 mg l^−1. Other methods were the same as those for DD4 [14].

[3] = system: human aortic vascular smooth muscle cells (HAVSMCs); assay: Drug absorption in human aortic vascular smooth muscle cells (HPLC of cell supernatant); type: in vitro ADME; details: for value (drug concentration in cell supernatant): dosing DD4 171, DD5 120 ug/mL; for maximum cell absorption rate relative to DAI: compared with DAI; for absorptivity (maximum absorption rate): maximum (at 1 h)
Experimental: (§2) HAVSMCs were obtained from resuscitation in cryopreservation tubes. HAVSMCs at passages 3–10 were seeded at a density of 10^5 in 6-well plates, 2 ml per well. The cells were cultured at 37°C in a 5% carbon dioxide incubator for 24 h to adhere to the cell wall; cells were cultured in serum-free DMEM for 24 h. The cells were synchronized, the supernatant was carefully aspirated and different concentrations of drug solution were added to the DMEM culture medium containing 10% serum. Equal amounts of DMEM culture medium without drugs were added to the blank group. Each group was set up in triplicate and further cultured. The cultures were terminated at 0.5, 1, 6, 12, 24 or 48 h. Cell culture supernatants were collected and stored at −80°C for further analysis.
Cell supernatants were thawed at room temperature and vortexed for 1 min. To 50 µl of the cell supernatant, 50 µl of methanol was added and the mixtures were mixed uniformly by eddy current. Ethyl acetate (1 ml) was added to the mixture and vortexed for 3 min. Ethyl acetate was separated by cooled centrifugation at 3000 r min^−1 and dried with nitrogen, and the residue was dissolved in 500 µl of methanol before injection for analysis.
Mobile phase: methanol-phosphoric acid solution (0.4%) (1 : 1); flow rate: 0.5 ml min^−1; injection volume: 10 µl; wavelength: 230 nm or 254 nm; column temperature 25°C.
Cell supernatants were thawed and vortexed for 1 min. Drug-added supernatant (50 µl) was treated by the same method as the pre-treatment of cell samples described in §4.2.
The absorption and utilization rates of DD4 and DD5 were calculated by the formula (6.1), with the reduction of drug concentration in the cell culture medium taken as the absorption amount of drug by cells. The initial drug concentration was c0, and the concentration in the cell supernatant at other time points is denoted as c. […] With increasing time, the cell absorption rate of the drug was maintained at about 60%. The main reason for the differences in absorption of DD4 and DD5 might be the length of the substituent group (methyl, ethyl) on the 7-position:6.1 absorption rate=c0−c/c0×100%.

[4] = system: human aortic vascular smooth muscle cells (HAVSMCs); assay: Cell metabolism in HAVSMCs by HPLC-MS; type: in vitro ADME; details: for metabolite identified (chemical name): HAVSMC lysate, 24 h incubation, HPLC-MS negative ion mode; for metabolites found in cell lysate: HAVSMCs incubated 24 h, HPLC-MS, also found in supernatant; for redox products in HAVSMCs: preliminary analysis of metabolic components
Experimental: as §2
Mobile phase: methanol-formic acid (1 : 1); flow rate: 0.5 ml min^−1; injection volume: 10 µl; wavelength: 254 nm; column temperature: 25°C.
A triple quadrupole tandem precision mass spectrometer (Agilent 6430) with an […] source and a negative ion mode was used for precise determination. The full mass spectrum data were obtained in the range of m/z 50–1000. The optimal mass spectrum parameters were as follows: the capillary voltage was 4.0 kV; the injection cone voltage was 35 V; the desolvation gas flow (N2) rate was 900 l h^−1; the injection cone gas flow (N2) rate was 50 l h^−1; the desolvation temperature was 350°C; the ion source temperature was 150°C; the collision gas in collision induced dissociation (CID) mode was helium with high purity; the inlet pressure was set at 40 psi; the CID collision energy of the standard was 5–35 eV and the cracking voltage was 135 V.
The cell supernatant was thawed and vortexed for 0.5 min. Cell supernatant (50 µl) and […] (50 µl) were added to a 2 ml centrifuge tube and vortexed for 3 min. Ammonium dihydrogen phosphate (100 µl, 0.4%) and 1 ml of ethyl acetate were added, and the sample was vortexed for 3 min. The mixture was centrifuged at 3000 r min^−1 for 10 min. The supernatant (95 µl) was aspirated and dried by N2 flow. […] (500 µl) was added and the sample was vortexed for 0.5 min. After filtration over a 0.45 µm organic membrane, HPLC-MS analysis was carried out.
Cells from the −80°C stock were thawed at room temperature, and 1 ml of thawed cell lysate was added into each well of a 6-well plate. From each group, 0.5 ml of cell lysate was taken; 50 µl of […], 100 µl of ammonium dihydrogen phosphate (0.4%) and 1 ml of ethyl acetate were added and samples were vortexed for 3 min. Lysate (95 µl) was aspirated and dried by N2 flow. […] (500 µl) was added and samples were vortexed for 0.5 min. After filtration over a 0.45 µm organic membrane, HPLC-MS analysis was carried out.

[5] = Solubility in water, methanol, cyclohexane and ethyl acetate by HPLC; type: physicochemical; details: organic solvent or mixture, thermodynamic from solid, head: hexane (text: cyclohexane), 37 °C, shaken 48 h
[6] = Solubility in water, methanol, cyclohexane and ethyl acetate by HPLC; type: physicochemical
Experimental: as §1
Five millilitres of water, methanol, cyclohexane and ethyl acetate was added to test tubes, and then samples (DD4 or DD5) were added. These solutions were shaken at constant temperature (37 ± 0.1)°C for 48 h. The supernatant was taken to determine its solubility with HPLC [14]. Solutions of tested sample beyond the linear concentration range were diluted with methanol for determination.

[7] = system: vascular smooth muscle cells; assay: Cytotoxicity by MTT assay; type: cell-based; details: 300 ug/mL
Description: […] 2) Please list the full name of “HAVSMCs”at the first time it appears.
We have listed the full name of “HAVSMCs” as its first appearance in the abstract of […]
[…] 3) Please number the carbon atoms of the compounds.
[…] 4) Line 19-36: The abstract can reflect all aspects of the work, but it is a bit long and too detailed. The authors should rephrase the abstract for a more concise […]
We have rewritten the section of abstract and tried to make it as concise as possible.
[…] 5) As far as I'm aware, daidzein as a biologically active natural product has been used for curing angiocardiopathy. But whether the synthesized daidzeinnapsylates have significant toxic side effects remain unknown. So, in vitro cytotoxicity […]
A549, HeLa cells) need be performed.
The cytotoxicity of DD4 and DD5 was determined by MTT assay in our lab before […]
the two compounds was less than 10% at the concentration of 300 ug/mL. It is considered that the compound is not toxic to vascular smooth muscle cells at this concentration. Therefore, the dosing concentrations of DD4 and DD5 were 171 and 120 ug/mL, respectively, to investigate the absorption and metabolism of drugs by […]
6)Please attach the 1H-NMR specturm of DD4 and DD5 in supporting information;

[8] = set-up: method as in ref 23 = [23]; 23 Zhang ZT , Liu QG , Liu XH , Yang BL , Duan YF , Gao ZW , Yu KB 2002 Synthesis, crystal structure and biological activity of monomethylated daidzein sulfonates . Acta Chim. Sinica 60 , 1846 – 1853; details: compared with DAI; cited from earlier work
[9] = cited from earlier work
[10] = set-up: key: —: Cannot be detected; details: DAI ref 14; cited from earlier work
[11] = at pH 7.4, 410 K, DAI ref 16, cited from earlier work
[12] = set-up: method as in ref 9 = [9]; 9 Chou F 2005 Pharmacokinetics of daidzein and its precursors . Shenyang, People's Republic of China : Shenyang Pharmaceutical University .; details: rats, intragastric administration of DAI solution; cited from earlier work
[13] = organic solvent or mixture, thermodynamic from solid, methanol, 37 °C, shaken 48 h, HPLC, read-out: solubility methanol
[14] = thermodynamic from solid, water, 37 °C, shaken 48 h, HPLC, read-out: solubility water
[15] = water, Table 5, read-out: solubility in water

Row | Compound | lgP [2] | apparent lipid-hydro partition coefficient found [2] | time of peak (maximum) absorption [3] | value (drug concentration in cell supernatant) ([3]; 0.5 h) | value (drug concentration in cell supernatant) ([3]; 1 h) | value (drug concentration in cell supernatant) ([3]; 6 h) | value (drug concentration in cell supernatant) ([3]; 12 h) | value (drug concentration in cell supernatant) ([3]; 24 h) | value (drug concentration in cell supernatant) ([3]; 48 h) | maximum cell absorption rate relative to DAI [3] | absorptivity (maximum absorption rate) [3] | metabolites found in cell lysate [4] | redox products in HAVSMCs [4] | solubility at 48 h [5] | melting point | solubility at 48 h [6, 13] | solubility at 48 h [6, 14] | solubility in water ([6]; water, 37 °C) | solubility at 48 h [6, 15] | cell inhibition rate [7] | also measured
1 | O=C(O)COc1ccc(-c2coc3cc(OCCO)ccc3c2=O)cc1 [4-oxoacetic acid-7-hydroxyethoxy-daidzein] | – | – | – | – | – | – | – | – | – | – | – | – | – | – | – | – | – | – | – | – | solubility in water [1]: 54.28 µg/mL (≈ 152 µM)
2 | COc1ccc2c(=O)c(-c3ccc(OS(=O)(=O)c4ccc5ccccc5c4)cc3)coc2c1 [DD4] | —^b | —^b | 1 h | 96.97 ± 15.57 µg/mL | 20.62 µg/mL and 20.62 ± 0.71 µg/mL | 110.70 ± 4.98 µg/mL | 82.48 ± 3.00 µg/mL | 71.01 ± 34.97 µg/mL | 111.28 ± 1.72 µg/mL | 4.3 times and 4.3–4.5 times | 87.97% | Four metabolites were found | no redox products | 509 ± 49 µg/mL (≈ 1110 µM) | 144 to 156 °C | 824 ± 19.3 µg/mL (≈ 1800 µM) | < 0.059 µg/mL | too poor to be detected | < 0.059 µg/mL | less than 10% | metabolite identified (chemical name) [4]: daidzein-4'-naphthalene sulphonate; solubility at 48 h ([6]; ethyl acetate, 37 °C, shaken 48 h, HPLC, read-out: solubility ethanoate (ethyl acetate)): 36300 µg/mL (≈ 79200 µM)
3 | sodium daidzein sulphonate | – | – | – | – | – | – | – | – | – | – | – | – | – | – | – | – | – | – | – | – | anti-hypoxic-ischaemic effect [8]: obviously better than that of DAI
4 | CCOc1ccc2c(=O)c(-c3ccc(OS(=O)(=O)c4ccc5ccccc5c4)cc3)coc2c1 [DD5] | —^b | —^b | 1 h | 88.31 ± 4.25 µg/mL | 11.59 ± 0.08 µg/mL | 44.60 ± 3.91 µg/mL | 47.13 ± 15.99 µg/mL | 50.34 ± 1.31 µg/mL | 29.29 ± 2.50 µg/mL | 4.5 times and 4.3–4.5 times | 90.34% | Six metabolites were found | no redox products | 69.7 ± 20.8 µg/mL (≈ 148 µM) | 151 to 153 °C | 2470 ± 72.4 µg/mL (≈ 5230 µM) | < 0.059 µg/mL | too poor to be detected | < 0.059 µg/mL | less than 10% | metabolite identified (chemical name) ([4]; metabolite DAI): daidzein; metabolite identified (chemical name) ([4]; metabolite M2): daidzein-4'-naphthalene sulphonate; metabolite identified (chemical name) ([4]; metabolite M4 or/and M4a): daidzein-4'-glucoside or daidzein-7-glucoside; metabolite identified (chemical name) ([4]; metabolite M5): 7-ethyldaidzein; metabolite identified (chemical name) ([4]; metabolite M6): daidzein-7-ethyl-4'-glucoside; metabolite identified (chemical name) ([4]; metabolite M7): daidzein-7-ethyl-4'-sulphonic acid
5 | O=c1c(-c2ccc(O)cc2)coc2cc(O)ccc12 [DAI, 4′, 7-dihydroxyisoflavone] | – | – | – | – | – | – | – | – | – | – | – | – | – | – | – | – | – | – | – | – | solubility in ethyl acetate ([9]; Table 5, DAI ref 16): 0.13 ± 0.11 µg/mL (≈ 0.511 µM); solubility in cyclohexane ([9]; cyclohexane, DAI ref 14): could not be determined; solubility in water ([9]; water, DAI ref 14): too poor to be detected; lgP [10]: —^b; dissociation constant (percentage of drug prototypes) calculated value [11]: 10.41%; molecular polar surface area/two-dimensional calculated value [11]: 66.76 Å^2; molecular surface area/three-dimensional calculated value [11]: 315.07 Å^2; polarizability calculated value [11]: 26.21; refractivity calculated value [11]: 69.70; H-bond accepter site ([11]; first figure of site/count): 5; H-bond accepter count ([11]; second figure of site/count): 4; absolute bioavailability calculated on the basis of free DAI [12]: 12.8%

Source: article PMC7890489, “Study on pharmacological properties and cell absorption metabolism of novel daidzein napsylates” (Royal Society Open Science, 2021)
